# Patent US20260070945A1, “MACROCYCLIC IMMUNOMODULATORS” (Bristol-Myers Squibb Company, priority 2022, published 2026)
# Where a SMILES comes first, the peptide text is derived from it. Bridges are numbered along the chain shown (N, C = ends). [ ]: non-standard residue; d: D form. The star is where a group is joined. ξ: configuration not given here. Phe(4-COOH) = N[C@@H](Cc1ccc(C(=O)O)cc1)C(=O)O; Bip = N[C@@H](Cc1ccc(-c2ccccc2)cc1)C(=O)O; Phe(3-Me) = Cc1cccc(C[C@H](N)C(=O)O)c1; dIle(3ξ) = CCC(C)[C@@H](N)C(=O)O; Cha = N[C@@H](CC1CCCCC1)C(=O)O; Cit = NC(=O)NCCC[C@H](N)C(=O)O; Ile(3ξ) = CCC(C)[C@H](N)C(=O)O; NMeN = CN[C@@H](CC(N)=O)C(=O)O; Thr(3ξ) = CC(O)[C@H](N)C(=O)O; hSer = N[C@@H](CCO)C(=O)O; Carboxymethyl = O=C(O)C*; NMeA = CN[C@@H](C)C(=O)O; Orn = NCCC[C@H](N)C(=O)O; dNMeA = CN[C@H](C)C(=O)O; Aun = NCCCCCCCCCCC(=O)O; Dab = NCC[C@H](N)C(=O)O; AEEA = NCCOCCOCC(=O)O; ξV = CC(C)C(N)C(=O)O
# Target: T1, PD-1/PD-L1 interaction (PE-labeled human PD-L1-Ig binding to Jurkat cell line over-expressing human PD-1) (Homo sapiens, UniProt Q15116)
# T1 construct: expressed in transfected cells; host or cells: Jurkat
# T1 sequence (Q15116 25-288): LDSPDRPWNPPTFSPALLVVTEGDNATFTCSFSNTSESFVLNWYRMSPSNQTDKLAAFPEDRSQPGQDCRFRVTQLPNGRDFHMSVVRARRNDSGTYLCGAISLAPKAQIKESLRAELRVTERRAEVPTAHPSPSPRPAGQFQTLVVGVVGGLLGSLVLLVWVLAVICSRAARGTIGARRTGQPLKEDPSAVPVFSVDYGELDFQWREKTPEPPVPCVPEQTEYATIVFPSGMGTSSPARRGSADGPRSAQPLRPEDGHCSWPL
# Assay: Jurkat-PD-1 Cell Binding High-Content Screening Assay (CBA)
# Details: Jurkat-hPD-1 cells, PE-labeled PD-L1-Ig 20 nM final; read-out: Jurkat HPD1 PDL1 IC50
# Summary of the method: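 High-content imaging read-out of PE-PD-L1-Ig binding (20 nM final, 1 h) to Jurkat-hPD-1 cells, after 2 h compound exposure at 37 °C in DMEM with 10% FCS. Nuclei counterstained with Hoechst 33342 after paraformaldehyde fixation.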
row,Compound,IC50
1,Cc1cccc(C[C@@H]2NC(=O)[C@H](CC(=O)O)NC(=O)[C@H](Cc3ccc(C(=O)O)cc3)NC(=O)[C@H](Cc3ccc(OCC(=O)O)cc3)NC(=O)CSC[C@@H](C(=O)N[C@H](CC(N)=O)C(=O)NCCCCCCCCCCC(=O)O)NC(=O)[C@H](CO)NC(=O)[C@H](C(C)C)NC(=O)[C@H](CC3CCCCC3)NC(=O)[C@H](CCN)NC(=O)[C@@H](CC(C)C)NC(=O)[C@H](C)N(C)C(=O)[C@H](C(C)C)NC(=O)[C@H](Cc3ccc(-c4ccccc4)cc3)NC(=O)[C@H](CC(C)C)NC2=O)c1 [Example 2235] ({CH2CO}-Y(Carboxymethyl)[Phe(4-COOH)]D[Phe(3-Me)]L[Bip]V[NMeA][dL][Dab][Cha]VSC[dN][Aun]-OH; thioether N-14),20 nM
2,CCC(C)[C@H]1NC(=O)[C@H](Cc2ccc(-c3ccccc3)cc2)NC(=O)[C@H](CC(C)C)NC(=O)[C@H](Cc2c[nH]c3ccccc23)NC(=O)[C@H](CC(=O)O)NC(=O)[C@H](Cc2ccc(C(=O)O)cc2)NC(=O)[C@H](Cc2ccc(OCC(=O)O)cc2)NC(=O)CSC[C@@H](C(=O)NCCCCCCCCCCC(=O)O)NC(=O)[C@H](CCCCN)NC(=O)[C@H](C(C)C)NC(=O)[C@H](CC2CCCCC2)NC(=O)[C@H](CCN)NC(=O)[C@@H](CC(C)C)NC(=O)[C@@H](C)N(C)C1=O (stereo partly drawn) [Example 2236] ({CH2CO}-Y(Carboxymethyl)[Phe(4-COOH)]DWL[Bip][dIle(3ξ)][dNMeA][dL][Dab][Cha]VKC[Aun]-OH; thioether N-14),13.1 nM
3,CCC(C)[C@@H]1NC(=O)[C@H](Cc2ccc(-c3ccccc3)cc2)NC(=O)[C@H](CC(C)C)NC(=O)[C@H](Cc2c[nH]c3ccccc23)NC(=O)[C@H](CC(=O)O)NC(=O)[C@H](Cc2ccc(C(=O)O)cc2)NC(=O)[C@H](Cc2ccc(OCC(=O)O)cc2)NC(=O)CSC[C@@H](C(=O)NCCCCCCCCCCC(=O)O)NC(=O)[C@H](CCCNC(=N)N)NC(=O)[C@H](C(C)C)NC(=O)[C@H](CC2CCCCC2)NC(=O)[C@H](CCN)NC(=O)[C@@H](CC(C)C)NC(=O)[C@H](C)N(C)C1=O (stereo partly drawn) [Example 2237] ({CH2CO}-Y(Carboxymethyl)[Phe(4-COOH)]DWL[Bip][Ile(3ξ)][NMeA][dL][Dab][Cha]VRC[Aun]-OH; thioether N-14),15 nM
4,CCC(C)[C@@H]1NC(=O)[C@H](Cc2ccc(-c3ccccc3)cc2)NC(=O)[C@H](C(C)C)NC(=O)[C@H](Cc2c[nH]c3ccccc23)NC(=O)[C@H](CC(=O)O)NC(=O)[C@H](Cc2ccc(OCC(=O)O)cc2)NC(=O)[C@H](Cc2ccc(OCC(=O)O)cc2)NC(=O)CSC[C@@H](C(=O)N[C@H](CC(N)=O)C(=O)NCCCCCCCCCCC(=O)O)NC(=O)[C@H](CCCCN)NC(=O)[C@H](C(C)C)NC(=O)[C@H](CC2CCCCC2)NC(=O)[C@H](CCN)NC(=O)[C@@H](CC(C)C)NC(=O)[C@H](C)N(C)C1=O (stereo partly drawn) [Example 2239] ({CH2CO}-Y(Carboxymethyl)Y(Carboxymethyl)DWV[Bip][Ile(3ξ)][NMeA][dL][Dab][Cha]VKC[dN][Aun]-OH; thioether N-14),6 nM
5,Cc1cccc(C[C@@H]2NC(=O)[C@H](CC(=O)O)NC(=O)[C@H](Cc3ccc(OCC(=O)O)cc3)NC(=O)[C@H](C(C)O)NC(=O)CSC[C@@H](C(=O)N[C@H](CC(N)=O)C(=O)NCCCCCCCCCCC(=O)O)NC(=O)[C@H](CCCN)NC(=O)[C@H](C(C)C)NC(=O)[C@H](CC3CCCCC3)NC(=O)[C@H](CCN)NC(=O)[C@@H](CC(C)C)NC(=O)[C@H](C)N(C)C(=O)[C@H](Cc3ccc(O)cc3)NC(=O)[C@H](Cc3ccc(-c4ccccc4)cc3)NC(=O)[C@H](C(C)C)NC2=O)c1 (stereo partly drawn) [Example 2241] ({CH2CO}-[Thr(3ξ)]Y(Carboxymethyl)D[Phe(3-Me)]V[Bip]Y[NMeA][dL][Dab][Cha]V[Orn]C[dN][Aun]-OH; thioether N-14),10.2 nM
6,CC(C)C[C@H]1NC(=O)[C@H](C)N(C)C(=O)[C@H](Cc2ccc(O)cc2)NC(=O)[C@H](Cc2ccc(-c3ccccc3)cc2)NC(=O)[C@H](C(C)C)NC(=O)[C@H](Cc2c[nH]c3ccccc23)NC(=O)[C@H](CC(=O)O)NC(=O)[C@H](Cc2ccc(OCC(=O)O)cc2)NC(=O)[C@H](C(C)O)NC(=O)CSC[C@@H](C(=O)N[C@H](CC(N)=O)C(=O)NCCCCCCCCCCC(=O)O)NC(=O)[C@H](CCCN)NC(=O)[C@H](C(C)C)NC(=O)[C@H](CC2CCCCC2)NC(=O)[C@H](CCN)NC1=O (stereo partly drawn) [Example 2242] ({CH2CO}-[Thr(3ξ)]Y(Carboxymethyl)DWV[Bip]Y[NMeA][dL][Dab][Cha]V[Orn]C[dN][Aun]-OH; thioether N-14),114 nM
7,CC(C)C[C@H]1NC(=O)[C@H](CC(N)=O)N(C)C(=O)[C@H](C(C)C)NC(=O)[C@H](Cc2ccc(-c3ccccc3)cc2)NC(=O)[C@H](C(C)C)NC(=O)[C@H](Cc2c[nH]c3ccccc23)NC(=O)[C@H](CC(=O)O)NC(=O)[C@H](Cc2ccc(OCC(=O)O)cc2)NC(=O)[C@H](C(C)O)NC(=O)CSC[C@@H](C(=O)N[C@@H](CCN)C(=O)NCCCCCCCCCCC(=O)O)NC(=O)[C@H](C(C)O)NC(=O)[C@H](C(C)C)NC(=O)[C@H](CC2CCCCC2)NC(=O)[C@H](CCN)NC1=O (stereo partly drawn) [Example 2243] ({CH2CO}-[Thr(3ξ)]Y(Carboxymethyl)DWV[Bip]V[NMeN][dL][Dab][Cha]V[Thr(3ξ)]C[Dab][Aun]-OH; thioether N-14),26 nM
8,CC(C)C[C@@H]1NC(=O)[C@H](Cc2c[nH]c3ccccc23)NC(=O)[C@H](CC(=O)O)NC(=O)[C@H](Cc2ccc(C(=O)O)cc2)NC(=O)[C@H](Cc2ccc(OCC(=O)O)cc2)NC(=O)CSC[C@@H](C(=O)NCCOCCOCC(=O)NCCCCCCCCCCC(=O)O)NC(=O)[C@H](CCO)NC(=O)[C@H](C(C)C)NC(=O)[C@H](CC2CCCCC2)NC(=O)[C@H](CCN)NC(=O)[C@@H](CC(C)C)NC(=O)[C@H](C)N(C)C(=O)[C@H](CCC(N)=O)NC(=O)[C@H](Cc2ccc(-c3ccccc3)cc2)NC1=O [Example 2244] ({CH2CO}-Y(Carboxymethyl)[Phe(4-COOH)]DWL[Bip]Q[NMeA][dL][Dab][Cha]V[hSer]C[AEEA][Aun]-OH; thioether N-14),38.6 nM
9,Cc1cccc(C[C@@H]2NC(=O)[C@H](CC(=O)O)NC(=O)[C@H](Cc3ccc(C(=O)O)cc3)NC(=O)[C@H](Cc3ccc(OCC(=O)O)cc3)NC(=O)CSC[C@@H](C(=O)NCCCCCCCCCCC(=O)O)NC(=O)[C@H](CCCNC(N)=O)NC(=O)[C@H](C(C)C)NC(=O)[C@H](CC3CCCCC3)NC(=O)[C@H](CCN)NC(=O)[C@@H](CC(C)C)NC(=O)[C@H](C)N(C)C(=O)[C@H](CC(C)C)NC(=O)[C@H](Cc3ccc(-c4ccccc4)cc3)NC(=O)[C@H](CC(C)C)NC2=O)c1 [Example 2245] ({CH2CO}-Y(Carboxymethyl)[Phe(4-COOH)]D[Phe(3-Me)]L[Bip]L[NMeA][dL][Dab][Cha]V[Cit]C[Aun]-OH; thioether N-14),25 nM
10,Cc1cccc(C[C@@H]2NC(=O)[C@H](CC(=O)O)NC(=O)[C@H](Cc3ccc(C(=O)O)cc3)NC(=O)[C@H](Cc3ccc(OCC(=O)O)cc3)NC(=O)CSC[C@@H](C(=O)NCCCCCCCCCCC(=O)O)NC(=O)[C@H](CCCNC(N)=O)NC(=O)[C@H](C(C)C)NC(=O)[C@H](CC3CCCCC3)NC(=O)[C@H](CCN)NC(=O)[C@@H](CC(C)C)NC(=O)[C@H](C)N(C)C(=O)[C@H](CCC(N)=O)NC(=O)[C@H](Cc3ccc(-c4ccccc4)cc3)NC(=O)[C@H](CC(C)C)NC2=O)c1 [Example 2246] ({CH2CO}-Y(Carboxymethyl)[Phe(4-COOH)]D[Phe(3-Me)]L[Bip]Q[NMeA][dL][Dab][Cha]V[Cit]C[Aun]-OH; thioether N-14),16.1 nM
11,CC(=O)NCCCC[C@@H]1NC(=O)[C@H](Cc2ccc(-c3ccccc3)cc2)NC(=O)[C@H](CC(C)C)NC(=O)[C@H](Cc2cccc(C)c2)NC(=O)[C@H](CC(=O)O)NC(=O)[C@H](Cc2ccc(C(=O)O)cc2)NC(=O)[C@H](Cc2ccc(OCC(=O)O)cc2)NC(=O)CSC[C@@H](C(=O)NCCCCCCCCCCC(=O)O)NC(=O)[C@H](CCCNC(N)=O)NC(=O)[C@H](C(C)C)NC(=O)[C@H](CC2CCCCC2)NC(=O)[C@H](CCN)NC(=O)[C@@H](CC(C)C)NC(=O)[C@H](C)N(C)C1=O [Example 2247] ({CH2CO}-Y(Carboxymethyl)[Phe(4-COOH)]D[Phe(3-Me)]L[Bip]K(Ac)[NMeA][dL][Dab][Cha]V[Cit]C[Aun]-OH; thioether N-14),4.9 nM
12,Cc1cccc(C[C@@H]2NC(=O)[C@H](CC(=O)O)NC(=O)[C@H](Cc3ccc(OCC(=O)O)cc3)NC(=O)[C@H](CC(N)=O)NC(=O)CSC[C@@H](C(=O)NCCCCCCCCCCC(=O)O)NC(=O)[C@H](CCCNC(N)=O)NC(=O)[C@H](C(C)C)NC(=O)[C@H](CC3CCCCC3)NC(=O)[C@H](CCN)NC(=O)[C@@H](CC(C)C)NC(=O)[C@H](C)N(C)C(=O)C(C(C)C)NC(=O)[C@H](Cc3ccc(-c4ccccc4)cc3)NC(=O)[C@H](CC(C)C)NC2=O)c1 (stereo partly drawn) [Example 2248] ({CH2CO}-NY(Carboxymethyl)D[Phe(3-Me)]L[Bip][ξV][NMeA][dL][Dab][Cha]V[Cit]C[Aun]-OH; thioether N-14),11 nM
13,Cc1cccc(C[C@@H]2NC(=O)[C@H](CC(=O)O)NC(=O)[C@H](Cc3c[nH]cn3)NC(=O)[C@H](Cc3ccc(OCC(=O)O)cc3)NC(=O)CSC[C@@H](C(=O)NCCCCCCCCCCC(=O)O)NC(=O)[C@H](CCC(N)=O)NC(=O)[C@H](C(C)C)NC(=O)[C@H](CC3CCCCC3)NC(=O)[C@H](CCN)NC(=O)[C@@H](CC(C)C)NC(=O)[C@H](C)N(C)C(=O)[C@H](Cc3ccc(O)cc3)NC(=O)[C@H](Cc3ccc(-c4ccccc4)cc3)NC(=O)[C@H](CC(C)C)NC2=O)c1 [Example 2251] ({CH2CO}-Y(Carboxymethyl)HD[Phe(3-Me)]L[Bip]Y[NMeA][dL][Dab][Cha]VQC[Aun]-OH; thioether N-14),169 nM
